In US4368267A, “Epoxidation of lower α-olefins” (priority 1980, dated 1983):

Experiments:
[1] = test system: P(40), P(80), S(80) cell fractions of Methylomonas sp. (CRL-17, NRRL B-11,208); test: Methane and propylene oxidation by cell fractions; type: biochemical; settings: 30° C.
Procedure: (§1) Cells were washed twice with 25 mM potassium phosphate buffer, pH 7.0 containing 5 mM MgCl2. Cells were suspended in the same buffer. The cell suspensions at 4° C. were disintegrated by a single passage through a French Pressure cell (15,000 lb./in.^2) and centrifuged at 5000×g. for 15 min. to remove unbroken bacteria. The supernatant solution (crude extract) was then centrifuged at 40,000×g. for 30 min., yielding particulate P(40) and soluble S(40) fractions. The S(40) fraction was subsequently centrifuged at 80,000×g. for 60 min., yielding particulate P(80) and soluble S(80) fractions. The particulate fractions [P(40) and P(80)] were suspended in 25 mM potassium phosphate buffer, pH 7.0, containing 5 mM MgCl2 and homogenized at 4° C.
(§2) The oxidation of methane and propylene by particulate [(P)40 and (P)80] fractions and soluble [S(80)] fraction was measured at 30° C. by estimating the production of methanol and propylene oxide, respectively. The reaction mixtures contained in 1.0 ml: 150 mM potassium phosphate buffer, pH 7.0 containing 5 mM MgCl2, 0.6 ml; […] NADH, and cellular fraction.
(§3) Reaction mixtures were contained in 10 ml vials at 4° C. Vials were sealed with rubber caps. The gaseous phase in the vials was removed using vacuum and then was replaced with a gas mixture of methane or propylene and oxygen at a 1:1, v/v ratio. Oxidation of other gaseous n-alkanes and n-alkenes was examined as described above. For liquid substrates, 10 μl of substrate was used directly.
(§4) The products of epoxidation of n-alkenes and hydroxylation of n-alkanes were assayed by flame ionization gas chromatography using a stainless steel column (12'×1/8") packed with 10% Carbowax 20 M on 80/100 Chromosorb W and Porapak Q column. The column temperature was maintained isothermally at 120° C. The carrier gas flow rate was 30 ml/min. of helium. The various products were identified by retention time comparisons and co-chromatography with authentic standards.
(§5) Specific activities were expressed as μ moles of products formed per hour per mg. protein. Concentrations of protein in various fractions were determined by the method of Lowry et al., J. Biol. Chem. 193: 265-275 (1951).

[2] = test system: P(40), P(80), S(80) cell fractions of Methylobacterium sp. (CRL-26, NRRL B-11,222); test: Methane and propylene oxidation by cell fractions; type: biochemical; settings: 30° C.
Procedure: as §1, §2, §3, §4, §5

[3] = test system: Methylobacterium organophilum (CRL 26, NRRL B-11,222); test: Epoxidation/hydroxylation by washed cell suspensions; type: cell-based; settings: propylene alone
Procedure: (§6) The pH of the nutrient medium was adjusted to 7.0 by the addition of acid or base and 50 ml aliquots of the nutrient medium was charged into a plurality of 300 ml shake flasks. The shake flasks were inoculated with an inoculating loop of cells from an agar plate containing homogeneous colonies of the microorganisms on the plate (the purity of the isolates were confirmed by microscopic examination). The isolates had been maintained on agar plates under an atmosphere of methane and air having a 1:1 v/v gas ratio which had been transferred every two weeks. The gaseous phase of the inoculated flasks was then replaced with a gas mixture comprised of methane and air having a ratio of 1:1 on a v/v basis. The inoculated flasks were sealed air tight and were incubated on a rotary shaker of orbital radius 2.5 cm at 250 rpm and at 30° C. for two days until the turbidity in the medium had developed.
(§7) The cells were harvested by centrifugation at 10,000 ×g at 4° C. for 30 minutes. The cell pellet was washed twice with a 0.15 M phosphate buffer at a pH of 7.0 (containing 0.002 M MgCl2). The washed cells were then suspended in a 0.15 M phosphate buffer at pH 7.0.
(§8) A 0.5 ml aliquot of each washed cell suspension (2 mg cells) was put into 10 ml vials at 4° C. which were sealed with a rubber cap. The gaseous phase of the vials was removed with vacuum and then was replaced with a gas mixture of alkene and oxygen at a 1:1 v/v ratio. It was then incubated at 30° C. on a rotary shaker at 300 rpm. Samples of product (3 μl) were withdrawn periodically with a microsyringe and the products were analyzed by gas chromatography (ionization flame detector column).
(§9) Several experiments were carried out using a plurality of compounds capable of generating the necessary reducing power (NADH2 or NADPH2) required for the epoxidation of alkenes or dienes. These experiments were carried out using cell suspensions of methane grown methylotrophs using the procedure as described in Example 1 except that a stimulator compound was added to the reaction medium.

[4] = test system: Methylococcus capsulatus strain MC; test: Stimulation of propylene epoxidation in cell suspensions; type: cell-based; settings: propylene alone
Procedure: as §6, §7, §8, §9

[5] = test system: Methylosinus trichosporium OB3b (NRRL B-11,196); test: Stoichiometry of the epoxidation of propylene by a cell-suspension; type: cell-based; settings: 3.6 μmoles propylene; 3.1 mg protein; 3 min.
Procedure: As a comparison the stoichiometry of the epoxidation of propylene by a cell-suspension of Methylosinus trichosporium OB3b (NRRL B-11,196) was determined as follows. The reaction mixture (3.0 ml.) contained 0.05 M sodium phosphate buffer, pH 7.0 and 3.6 μmoles of propylene. The reaction was initiated by the injection of 0.1 ml. of cell-suspension (3.1 mg protein). A correction was made for the endogenous consumption of oxygen. The amount of oxygen consumed during the reaction (3 min.) was determined polarographically with a Clark oxygen electrode. The propylene consumed and the propylene oxide formed was estimated by gas chromatography. The propylene consumed was 0.29 μmoles, the oxygen consumed was 0.30 μmoles and the propylene oxide formed was 0.28 μmoles.

[6] = test system: Methylococcus capsulatus (CRL M1, NRRL B-11,219); test: Oxidation/epoxidation by washed cell suspensions; type: cell-based; settings: propylene alone (control); 3 Hr
Procedure: as §6, with “The shake flasks were inoculated with an inoculating loop of cells from an agar plate containing homogeneous colonies of the microorganisms on the plate (the purity of the isolates were confirmed by microscopic examination).” left out
as §7, §8
The experimental procedure described in Example 1 was used to prepare washed cell suspensions of methane-grown microorganisms and the use of the same to oxidize or epoxidize the branched chain alkanes, alkenes and dienes.

SMILES	Methane-Oxidizing Activity, P(40) ([1]; P(40) fraction)	Methane-Oxidizing Activity, P(80) ([1]; P(80) fraction)	Methane-Oxidizing Activity, S(80) ([1]; S(80) fraction)	Methane-Oxidizing Activity, P(40) ([2]; P(40) fraction)	Methane-Oxidizing Activity, P(80) ([2]; P(80) fraction)	Methane-Oxidizing Activity, S(80) ([2]; S(80) fraction)	Rate of Product Formation (Propylene Oxide) [3] [nmoles/hr/mg protein]	Rate of Product Formation (Propylene Oxide) [4] [nmoles/hr/mg protein]	Propylene Oxide Formed [5] [µmol]	oxygen consumed [5] [µmol]	propylene consumed [5] [µmol]	Propylene-Oxidizing Activity, P(40) ([1]; P(40) fraction)	Propylene-Oxidizing Activity, P(80) ([1]; P(80) fraction)	Propylene-Oxidizing Activity, S(80) ([1]; S(80) fraction)	Propylene-Oxidizing Activity, P(40) ([2]; P(40) fraction)	Propylene-Oxidizing Activity, P(80) ([2]; P(80) fraction)	Propylene-Oxidizing Activity, S(80) ([2]; S(80) fraction)	Epoxidation Rate, Propylene oxide [6] [μmoles/0.5 ml]
C [Methane]	2.9 μmoles of product formed per h	2.7 μmoles of product formed per h	0 μmoles of product formed per h	2.7 μmoles of product formed per h	2.8 μmoles of product formed per h	0 μmoles of product formed per h	–	–	–	–	–	–	–	–	–	–	–	–
C=CC [Propylene]	–	–	–	–	–	–	10	3.5	0.28	0.30	0.29	2.2 μmoles of product formed per h	2.0 μmoles of product formed per h	0 μmoles of product formed per h	1.2 μmoles of product formed per h	1.1 μmoles of product formed per h	0 μmoles of product formed per h	3.9
